Measured values: paper PMC6123365, “Pharmacokinetics of Nuciferine and N-Nornuciferine, Two Major Alkaloids From Nelumbo nucifera Leaves, in Rat Plasma and the Brain” (Frontiers in Pharmacology, 2018)
Like-named read-outs stand apart in the source and are kept apart here.

Experiments:
[1] = tested on: CYP2D6 isoenzyme; parameters: method as in Ye et al., 2014; conditions: competitive manner; ref Ye et al., 2014; cited from earlier work
[2] = Plasma pharmacokinetics after single oral dose of lotus leaf alkaloid fraction; type: in vivo, SD rats; conditions: for bioavailability / Tmax / AUC(0-inf) / AUC(0-t) / Cmax / MRT inf / half-life: male; for bioavailability: SD, rat, from plasma AUC0-inf after oral (50 mg/kg) and i.v. (10 mg/kg) alkaloid fraction, read-out: F (absolute oral bioavailability); for Tmax / AUC(0-inf) / AUC(0-t) / Cmax / MRT inf / half-life / CL / Vd, λz: rat plasma, mean ± SD, n = 5; for Tmax: oral alkaloid fraction 50 mg/kg (NF 22.5, N-NF 10 mg/kg); for AUC(0-inf) / AUC(0-t) / Cmax / MRT inf / half-life / CL / Vd, λz: oral alkaloid fraction 50 mg/kg; for half-life: read-out: t1/2, λz (converted)
Experimental: (§1) The experimental animals (n = 10), male SD rats (200 ± 20 g), were supplied by the Institute of Laboratory Animal Sciences, Chinese Academy of Medical Sciences and Peking Union Medical College (Beijing, China). The animal experiments were approved by the Animal Ethics Committee at the Institute of Medicinal Plant Development, Chinese Academy of Medical Sciences. The day before the experiment, a light surgery was performed. A polyethylene catheter (0.50-mm ID, 1.00-mm OD, Portex Limited, Hythe, Kent, England) was cannulated into the right jugular vein under anesthesia with an intraperitoneal dose of chloral hydrate at 350 mg/kg. After surgery, the rats were placed individually in cages and allowed to recover for at least 12 h. The rats were fasted overnight with free access to water prior to drug administration.
(§2) Rats were randomly divided into two groups (five per group). Group 1 was treated with the alkaloid fraction dissolved in 0.03% HCl at a single oral dose of 50 mg/kg by gastric gavage. Group 2 was treated with the alkaloid fraction dissolved in normal saline solution containing 0.03% HCl at an i.v. dose of 10 mg/kg by rapid injection via the catheter. After i.v. administration, 0.2 mL of heparinized saline was injected into the catheter for cleaning.
(§3) Blood samples (0.2 mL) were collected from the catheter at multiple intervals (0.08, 0.17, 0.25, 0.50, 1, 2, 4, 6, 8, 12, and 16 h) after dosing. Samples were placed into a heparinized centrifuge tube and centrifuged at 3,000 × g and 4°C for 3 min for plasma separation. An aliquot (0.1 mL) of each separated plasma sample was immediately analyzed or stored at -20°C until assay. After each blood collection, 0.2 mL of normal saline containing 20 units of heparin was injected into the catheter to flush the catheter and prevent coagulation.
(§4) An aliquot of 100 μL of plasma was vortexed with 20 μL of IS (10 μg/mL) and then mixed with 1.5 mL of ethyl acetate for 10 min. Following centrifugation at 8,000 × g for 5 min, the organic phase was completely transferred to a glass tube and concentrated by a gentle nitrogen stream at 40°C. Subsequently, the residue was reconstituted in 150 μL of 80% methanol. Then, the solution was transferred into a small clean tube and centrifuged for 5 min at 16,000 × g. Finally, 10 μL of the supernatant was directly injected into the UPLC system for analysis.
(§5) Pharmacokinetic parameters were estimated by the drug concentration in the plasma or brain versus time profiles using WinNonlin software (Pharsight Corporation, Mountain View, CA, United States, Version 2.1). A non-compartmental model was employed to calculate the following parameters: initial plasma concentration (C0) for the i.v. dose, plasma or brain maximum concentration (Cmax), time of maximum concentration (Tmax), terminal elimination half-life (t1/2, λz), area under the plasma concentration versus time curve from time zero to the last sampling time (AUC0-t) and zero to infinity (AUC0-inf), total body clearance (CL), volume of distribution (Vd, λz), and MRT. Absolute bioavailability (F) was calculated based on the plasma AUC0-inf obtained after oral and i.v. administration at the equivalent dose. The analyte concentration (Cf) in the brain lateral ventricle at each time point was calculated from its probe recovery (Rdial) and determined concentration (Cd) in dialysate by the equation, Cf = Cd/Rdial.

[3] = parameters: method as in earlier work; conditions: ref National Center for Biotechnology Information. PubChem Compound Database (CID = 10146; CID = 12313579); cited from earlier work
[4] = Plasma pharmacokinetics after single i.v. dose of lotus leaf alkaloid fraction; type: in vivo, SD rats; conditions: male, iv, rat plasma, i.v. alkaloid fraction 10 mg/kg, mean ± SD, n = 5; for Vd: read-out: Vd, λz; for half-life: read-out: t1/2, λz (converted)
Experimental: as §1, §2, §3, §4, §5

[5] = Brain pharmacokinetics (unbound, lateral ventricle) by microdialysis after i.v. dose of alkaloid fraction; type: in vivo, rats; conditions: rat brain lateral ventricle, mean ± SD, n = 6; for AUC(0-inf) / AUC(0-t) / MRT inf / half-life / Tmax / Cmax: Sprague-Dawley, brain lateral ventricle microdialysate (unbound), iv; for half-life: read-out: t1/2, λz (converted); for Tmax / Cmax: unbound; for Tmax: i.v. alkaloid fraction 20 mg/kg (NF 9, N-NF 4 mg/kg)
Experimental: The microdialysis experiment was conducted as previously described ([Xiao et al., 2016]). Briefly, the rats were anesthetized with an intraperitoneal dose of chloral hydrate 350 mg/kg, and a guide cannula [MAB6 (9).14.IC; MAB, Stockholm, Sweden] was stereotaxically implanted into the lateral ventricle of the brain at the following coordinates relative to bregma: anterior -0.9 mm; lateral +1.5 mm; and lowered 3.1 mm ventral to the dura surface. The guide cannula was secured in place with skull screws and dental cement. The rats were placed in separate cages for at least 3 days to recover. Then, a light surgery was performed as described above.
The probe was perfused with aCSF containing 5 mM β-CD at a flow rate of 2 μL/min. The brain microdialysis system consisted of a syringe microinfusion pump (CMA 400, CMA Microdialysis, Solna, Sweden), equipment for freely moving animals (CMA 120, CMA Microdialysis, Solna, Sweden), a microdialysis probe (MAB6.14.4; 4 mm, MAB, Stockholm, Sweden) and an automatic sample collector (CMA 470, CMA Microdialysis, Solna, Sweden) set at 4°C. The rat was allowed to equilibrate for 1 h prior to the initiation of sample collection. After blank dialysate samples were collected, the animal received an i.v. dose of the alkaloid fraction at 20 mg/kg by injection through the jugular vein. An 8 min delay was incorporated into the sampling procedure to compensate for the dead volume between the active membrane and the sample collection outlet. The dialysates were collected every 20 min time interval for 2 h and then every 30 min time interval for 4 h. The collected samples were kept at 4°C and analyzed within 24 h.
as §5

[6] = rats, cited from earlier work
[7] = i.v. alkaloid fraction 20 mg/kg

For `COc1cc2c3c(c1OC)-c1ccccc1CC3NCC2` (centres unmarked) [N-NF, N-nornuciferine], the “inhibition of CYP2D6 isoenzyme activity” value [1] is listed as “significantly inhibit”, the bioavailability [2] is listed as 79.9% and the Tmax [2] is listed as 1.65 ± 0.78 h. For the same compound, the AUC(0-inf) [2] was 3.4 ± 0.7 µg·h/mL, the AUC(0-t) [2] was 3.32 ± 0.67 µg·h/mL and the Cmax [2] was 0.57 ± 0.1 µg/mL. It also gave an MRT inf [2] of 4.71 ± 0.72 h, a half-life [2] of 2.94 ± 0.4 h and a CL [2] of 2.44 ± 0.56 L/h/kg. For the same compound, the “Vd, λz” value [2] was 10.34 ± 2.64 L/kg, the LogP [3] was 3 and the AUC(0-inf) [4] was 0.85 ± 0.28 µg·h/mL. For the same compound, the AUC(0-t) [4] was 0.74 ± 0.2 µg·h/mL, the C0 [4] was 0.69 ± 0.56 µg/mL and the MRT inf [4] was 4.94 ± 1.83 h. For the same compound, the clearance [4] was 2.61 L/h/kg, the Vd [4] was 15.2 ± 2.17 L/kg and the half-life [4] was 3.84 ± 1.27 h. It also gave an AUC(0-inf) [5, 7] of 0.5 ± 0.06 µg·h/mL, an AUC(0-t) [5, 7] of 0.46 ± 0.07 µg·h/mL and an MRT inf [5, 7] of 2.98 ± 0.49 h. For the same compound, the half-life [5, 7] was 1.39 ± 0.68 h, the Tmax [5] was 1.22 ± 0.27 h and the Cmax [5, 7] was 0.16 ± 0.03 µg/mL. It also gave a CL/F [5, 7] of 8.08 ± 1.00 L/h/kg.
In the case of `COc1cc2c3c(c1OC)-c1ccccc1C[C@H]3N(C)CC2` [NF, nuciferine], the “inhibition of CYP2D6 isoenzyme activity” value [1] is given as “significantly inhibit”, the bioavailability [2] is given as 58.1% and the Tmax [2] is given as 0.9 ± 0.72 h. It also gave an AUC(0-inf) [2] of 6.2 ± 1.33 µg·h/mL, an AUC(0-t) [2] of 6.13 ± 1.35 µg·h/mL and a Cmax [2] of 1.71 ± 0.45 µg/mL. For the same compound, the MRT inf [2] was 3.35 ± 0.8 h, the half-life [2] was 2.48 ± 0.66 h and the CL [2] was 2.19 ± 0.45 L/h/kg. The “Vd, λz” value [2] was 7.87 ± 2.84 L/kg, the LogP [3] was 3.4 and the AUC(0-inf) [4] was 2.13 ± 0.4 µg·h/mL. The AUC(0-t) [4] was 2.09 ± 0.38 µg·h/mL, the C0 [4] was 2.58 ± 0.89 µg/mL and the MRT inf [4] was 2.07 ± 0.74 h. It also gave a clearance [4] of 2.15 L/h/kg, a Vd [4] of 9.48 ± 3.17 L/kg and a half-life [4] of 2.09 ± 0.64 h. It also gave an AUC(0-inf) [5, 7] of 0.83 ± 0.13 µg·h/mL, an AUC(0-t) [5, 7] of 0.78 ± 0.13 µg·h/mL and an MRT inf [5, 7] of 2.46 ± 0.35 h. It also gave a half-life [5, 7] of 1.24 ± 0.33 h, a Tmax [5] of 0.89 ± 0.17 h and a Cmax [5, 7] of 0.32 ± 0.07 µg/mL. For the same compound, the CL/F [5, 7] was 11.08 ± 1.80 L/h/kg, the “Vd, λz/F” value [5, 7] was 19.78 ± 5.79 L/kg and the oral bioavailability ([6]; oral administration of pure NF, LC-MS/MS, ref Xie et al., 2010) was 69.56%. For the same compound, the oral bioavailability ([6]; pure NF, ref Gu et al., 2014) was 3.9%.
